System: Aβ42
Assay: Aβ42 vs. Aβ total production in H4 neuroglioma cells stably expressing human APP695 (Meso Scale Discovery electrochemiluminescence assay)
Type: cell-based
Details: the higher the ratio, the more specific the inhibition of Aβ42
Experimental: Cells were plated out to near confluency. The compounds to be tested were received as 10 mM stocks in 100% DMSO. A dilution series was initially generated in 100% DMSO and then diluted 200-fold in cell culture media such that the tested concentration range was 30 μM to 0.1 nM and the final DMSO concentration was 0.5%. The diluted compounds were incubated with the cells for 22 hours in an incubator at 37° C. and 5% CO2. Aβ42 as well as Aβ total levels were then measured post-incubation from the supernatant of the cells. Aβ42 levels were determined using a specific electrochemiluminescence assay provided by Meso Scale Discovery (Catalog #L21CA-1) according to the manufacturer's protocol. Aβ total levels were likewise determined using a specific electrochemiluminescence assay provided by Meso Scale Discovery (Catalog #L21ZA-1) according to the manufacturer's protocol.
In order to absolutely define the described compounds as modulators of γ-Secretase as opposed to simply inhibitors of γ-Secretase, measurements of not only Aβ42 but also Aβ total are performed.

Structure (SMILES)	Ratio Aβ(total)/Aβ42 (Aβ total IC50/Aβ42 IC50)
COc1cc(Nc2ncc3c(n2)N2CCCC2C(=O)N3C)ccc1-n1cnc(C)c1 (stereo not shown) [Example 11]	>310
CCc1nc(Nc2ccc(-n3cnc(C)c3)c(OC)c2)nc2c1N(C)C(=O)C1CCCCN21 (stereo not shown) [Example 36]	86
CCN1C(=O)C2CCCCCN2c2nc(Nc3ccc(-n4ccnc4)c(OC)c3)ncc21 (stereo not shown) [Example 5-2]	64
COc1cc(Nc2ncc3c(n2)N2CCCC2C(=O)N3C)ccc1-n1cnc(C)n1 (stereo not shown) [Example 12-1]	>10
CCN1C(=O)C2CCCCCN2c2nc(Nc3cnc(-n4cnc(C)c4)c(OC)c3)ncc21 (stereo not shown) [Example 5-4]	>175
CCCN1C(=O)C2CCCCCN2c2nc(Nc3ccc(-c4ccnc(C)c4)cc3)ncc21 (stereo not shown) [Example 5]	14
CCc1nc(Nc2ccc(-n3cnc(C)c3)c(OC)c2)nc2c1NC(=O)[C@@H]1C[C@@H](OC)CN21 [Example 17]	68
Cc1cn(-c2ccc(Nc3nc(CC(C)C)c4c(n3)N3CCCC3C(=O)N4C)cc2C#N)cn1 (stereo not shown) [Example 35]	71
CCCN1C(=O)C2CCCCCN2c2nc(Nc3ccc(-n4cnc(C)c4)c(OC)c3)ncc21 (stereo not shown) [Example 4]	44
CCc1nc(Nc2ccc(-n3cnc(C)c3)c(OC)c2)nc2c1NC(=O)C1CCCN21 (stereo not shown) [Example 7]	98
CCN1C(=O)C2CCCCCN2c2nc(Nc3ccc(-n4cnc(C)c4)cc3OC)ncc21 (stereo not shown) [Example 5-7]	3
CCN1C(=O)C2CCCCCN2c2nc(Nc3ccc(-c4ccnc(C)c4)cc3)ncc21 (stereo not shown) [Example 3]	17
CCN1C(=O)C2CCCCCN2c2nc(Nc3ccc(-c4cnc(C)s4)c(OC)c3)ncc21 (stereo not shown) [Example 5-5]	13
CCc1nc(Nc2ccc(-c3cnc(C)o3)nc2)nc2c1N(C)C(=O)C1CCCN21 (stereo not shown) [Example 9]	>24
Cc1cn(-c2ccc(Nc3ncc4c(n3)N3CCCC3C(=O)N4C)cc2F)cn1 (stereo not shown) [Example 12-3]	>27
COc1cc(Nc2ncc3c(n2)N2CCCC2C(=O)N3C)ccc1-n1ncnc1C (stereo not shown) [Example 12-4]	>39
CCc1nc(Nc2ccc(-n3cnc(C)c3)c(OC)c2)nc2c1NC(=O)[C@H]1[C@@H](c3ccc(F)cc3)CCN21 (racemic) [Example 22]	71
COc1cc(Nc2ncc3c(n2)N2CCCOC2(C)C(=O)N3C)ccc1-n1cnc(C)c1 (stereo not shown) [Example 31]	55
CCc1nc(Nc2ccc(-n3cnc(C)c3)c(OC)c2)nc2c1N(C)C(=O)[C@H]1[C@H](c3ccc(F)cc3)CCN21 (racemic) [Example 23]	90

Structure (SMILES)	Ratio Aβ(total)/Aβ42 (Aβ total IC50/Aβ42 IC50)
CCc1nc(Nc2ccc(-n3cnc(C)c3)c(OC)c2)nc2c1N(C)C(=O)[C@@H]1C[C@@H](OC)CN21 [Example 14]	67
COc1cc(Nc2nc(SC)c3c(n2)N2CCCCC2C(=O)N3C)ccc1-n1cnc(C)c1 (stereo not shown) [Example 13]	14
COc1cc(Nc2nc(C(C)C)c3c(n2)N2CCCC2C(=O)N3C)ccc1-n1cnc(C)c1 (stereo not shown) [Example 32]	66
COc1cc(Nc2ncc3c(n2)N2CCCOCC2C(=O)N3)ccc1-n1cnc(C)c1 (stereo not shown) [Example 30]	96
CCc1nc(Nc2ccc(-n3cnc(C)c3)c(C#N)c2)nc2c1N(C)C(=O)[C@@H]1C[C@@H](OC)CN21 [Example 15]	36
CCc1nc(Nc2ccc(-c3cnc(C)o3)c(OC)c2)nc2c1NC(=O)[C@@H]1C[C@@H](OC)CN21 [Example 19]	82
CCc1nc(Nc2ccc(-n3cnc(C)c3)c(OC)c2)nc2c1NC(=O)[C@@]1(C)[C@@H](OC)CN21 (racemic) [Example 27]	70
CC(C)Cc1nc(Nc2ccc(-c3cnn(C)c3)cc2)nc2c1N(C)C(=O)C1CCCN21 (stereo not shown) [Example 34]	30
CCc1nc(Nc2ccc(-n3cnc(C)c3)c(C#N)c2)nc2c1NC(=O)[C@@H]1C[C@@H](OC)CN21 [Example 16]	33
CCc1nc(Nc2ccc(-c3ccnc(C)c3)cc2)nc2c1N(C)C(=O)C1CCCN21 (stereo not shown) [Example 8]	62
CCc1nc(Nc2ccc(-n3cnc(C)c3)c(OC)c2)nc2c1N(C)C(=O)C1COCCN21 (stereo not shown) [Example 29]	76
CN1C(=O)C2CCCN2c2nc(Nc3ccc(-c4cnn(C)c4)nc3)ncc21 (stereo not shown) [Example 12-2]	>5
CCc1nc(Nc2ccc(-n3cnc(C)c3)c(OC)c2)nc2c1N(C)C(=O)C1CCCN21 (stereo not shown) [Example 6]	96
CCc1nc(Nc2ccc(-n3cnc(C)c3)c(OC)c2)nc2c1NC(=O)C1COCCN21 (stereo not shown) [Example 28]	29
CCN1C(=O)C2CCCCCN2c2nc(Nc3ccc(-n4cnc(C)c4)cc3)ncc21 (stereo not shown) [Example 5-6]	43
CCc1nc(Nc2ccc(-n3cnc(C)c3)c(OC)c2)nc2c1N(C)C(=O)[C@]1(C)C[C@@H](OC)CN21 [Example 25]	73
COc1cc(Nc2ncc3c(n2)N2CCCCCC2C(=O)N3C)ccc1-n1cnc(C)c1 (stereo not shown) [Example 2]	59
COc1cc(Nc2nc(C(C)C)c3c(n2)N2CCN(C(=O)OC(C)(C)C)CC2C(=O)N3C)ccc1-n1cnc(C)c1 (stereo not shown) [Example 37]	12
